Source: article PMC7180842, “Efficacy of Topical Treatment with (−)-Epigallocatechin Gallate, A Green Tea Catechin, in Mice with Cutaneous Leishmaniasis” (Molecules, 2020)
Converted amounts (≈) assume the structure as drawn.

Experiments:
[1] = test system: intracellular amastigotes of L. (L.) amazonensis; test: In vitro antiamastigote activity in infected THP1-derived macrophages; assay type: cell-based, Leishmania (Leishmania) amazonensis; settings: for SI (selectivity index, ratio CC50 THP1/IC50 Leishmania): CC50 THP1/IC50 intracellular amastigotes; for SI (selectivity index, ratio CC50 THP1/IC50 Leishmania) / IC50: 48 h; for IC50: Leishmania amazonensis, Macrophage; for IC50 / Intracellular Amastigotes IC50: macrophages infected with L. (L.) amazonensis, 48 h of treatment, 34 °C
Method: THP1 cells (2 × 10^5/mL) were differentiated to macrophages with 10 ng/mL of phorbol myristate acetate and placed in Lab-Tek eight chamber slides for 24 h at 37 °C in a 5% CO2 95% air mixture. Adherent macrophages were infected with L. (L.) amazonensis at a ratio of four parasites per macrophage and incubated at 34 °C in a 5% CO2 95% air mixture during 24 h. After infection, the cells were washed with pre-warmed PBS to remove free parasites. A new medium with different concentrations of EGCG, EGC, GCG and GC (2.3 to 130 µg/mL) and Gl (2.5 to 80 µg Sb^v/mL) was added to each well. The positive controls were infected cells cultured under the presence of complete RPMI-1640 medium. The chambers were returned to the CO2 incubator for an additional 48 h at 34 °C, 5% CO2 [17]. The cells were stained with Diff Quik (Biopur S.R.L., Rosario, Argentina), and the results were expressed as the concentration of compound to inhibit the 50% of the growth (IC50) of the intracellular amastigotes.
(§1) The GraphPad Prism 5.0 software (GraphPad Software Inc., San Diego, CA, USA) was employed to carry out calculations of the IC50 and CC50 values by a nonlinear regression. Multiple comparisons of lesions’ sizes between groups were made with a one-way analysis of variance (ANOVA) followed by Tukey test. The statistical analysis of the parasite burden data obtained by the limiting dilution assay was done using ELIDA software, which analyses data through the Poisson distribution and by the X^2 test. p < 0.05 was considered significant. The data are representative of two separate experiments in vivo.

[2] = Macrophage cytotoxicity screening (MTT assay); assay type: cell-based; settings: human, THP1 cells differentiated to macrophages
Method: The cytotoxicity of EGCG, EGC, GCG and GC was evaluated in a human monocytic cell line derived from an acute monocytic leukemia patient (THP1). The cells (3 x 10^4/150 µL) were first differentiated to macrophages with 10 ng/mL of phorbol myristate acetate for 24 h at 37 °C in a 5% CO2 95% air mixture. […] The controls were incubated with RPMI 1640 medium (Gibco, Grand Island, NY, USA). The viability of the macrophages was determined by the MTT assay (Nacalai tesque, Kyoto, Japan). Briefly, 50 μL of MTT (2 mg/mL) was added to each well and, after 4 h of incubation at 37 °C, the reaction was stopped dissolving the formazan crystals with 100 μL/well of dimethyl sulfoxide (DMSO). The relative amount of formazan produced by viable macrophages was determined using a spectrophotometer at 570 nm. The percentage of viable cells was calculated according to the formula: OD treated culture–OD blank x 100/OD control–OD blank as was described previously. The CC50 was calculated for each compound as the concentration of compound that reduces cell growth by 50%.
as §1

[3] = test system: promastigotes of L. (L.) amazonensis; parameters: method as in earlier work; settings: cited from earlier work
[4] = test system: promastigotes of L. (V.) braziliensis; parameters: method as in earlier work; settings: cited from earlier work
[5] = test system: L. (L.) amazonensis; test: In vivo cutaneous leishmaniasis model, infected ear dermis of BALB/c mice; settings: 18 days; for Parasite burden inhibition: once a day, six times a week, from week six postinfection, vs control group; for Lesion size: week 10, vs control group, p < 0.05
Method: Female BALB/c mice of six weeks old (weight, 20 to 25 g) were randomly separated into three groups of five animals and were inoculated by intradermal via in their right ear with 5 × 10^3 (20 µL) infective promastigotes of L. (L.) amazonensis (late log phase of growth). The animals were housed in groups of five in metal cages under a controlled environmental condition (12:12 h light/dark cycle and 23 °C room temperature) with food and water ad libitum.
At week six postinfection, mice received the treatments as follow: group 1, treated with EGCG in USP hydrophilic ointment (15%), group 2, treated with 120 mg Sb^v/kg/d of Gl administered by intraperitoneal route, and group 3, control mice (without treatment). EGCG was uniformly mixed in USP hydrophilic cream (Yoshida Pharmaceutical Co., Saitama, Japan) (15% w/w) and was topically applied (20 mg/lesion). EGCG ointment was prepared daily. The treatments were given during 18 days, once a day, six times a week, until the end of the treatments (9th week). The efficacy of treatments was determined by measuring the lesions’ sizes (mm^2) with a digital caliper weekly (150 mm; Digimess) and by quantifying the parasite burden with the limit dilution assay as was described previously.
as §1

[6] = test system: intracellular amastigotes of L. (L.) amazonensis; parameters: method as in PMID 22735546; settings: infected macrophage cultures incubated at 37 °C; cited from earlier work
[7] = test system: intracellular amastigotes of L. (V.) braziliensis; parameters: method as in PMID 25144225; settings: infected macrophage cultures incubated at 37 °C; cited from earlier work
[8] = test system: L. (L.) donovani; parameters: method as in PMID 16569852; settings: cited from earlier work
[9] = test system: L. (V.) braziliensis; parameters: method as in PMID 24106750, PMID 22735546; settings: EGCG oral treatment, BALB/c mice; cited from earlier work
[10] = intraperitoneal 120 mg Sb^v/kg/d

Compound | SI (selectivity index, ratio CC50 THP1/IC50 Leishmania) [1] | IC50 [1] [µg/mL] | CC50 at 48 h [2] [µg/mL] | Leishmanicidal activity / growth of promastigotes [3] | Leishmanicidal activity / growth of promastigotes [4] | other results
Oc1cc(O)c2c(c1)O[C@H](c1cc(O)c(O)c(O)c1)[C@H](O)C2 [EGC, (−)-epigallocatechin] | ≥2.7 | < 59.6 | 121 ± 20 (≈ 394 µM) | leishmanicidal activity | leishmanicidal activity | SI (selectivity index, ratio CC50 THP1/IC50 Leishmania) ([1]; listed as (−)-epigallocatechin): > 1; Intracellular Amastigotes IC50 [1]: ≥44.3 µg/mL
O=C(O[C@@H]1Cc2c(O)cc(O)cc2O[C@H]1c1ccc(O)c(O)c1)c1cc(O)c(O)c(O)c1 [(−)-catechin gallate] | – | – | – | did not inhibit the growth | did not inhibit the growth | –
Oc1cc(O)c2c(c1)O[C@H](c1ccc(O)c(O)c1)[C@H](O)C2 [(−)-epicatechin] | – | – | – | did not inhibit the growth | did not inhibit the growth | –
Meglumine antimoniate [reference compound] | – | – | – | – | – | Parasite burden inhibition [5, 10]: 85.1%; Lesion size [5, 10]: reduced the lesion size
O=C(O[C@@H]1Cc2c(O)cc(O)cc2O[C@@H]1c1cc(O)c(O)c(O)c1)c1cc(O)c(O)c(O)c1 [EGCG, (−)-Epigallocatechin gallate] | 1.5 | < 59.6 | 88.9 ± 21.9 (≈ 194 µM) | leishmanicidal activity | leishmanicidal activity | SI (selectivity index, ratio CC50 THP1/IC50 Leishmania) ([1]; listed as (−)-Epigallocatechin gallate): > 1; Intracellular Amastigotes IC50 [1]: 59.6 ± 9.3 µg/mL; Parasite burden inhibition ([5]; topical 15% EGCG in USP hydrophilic ointment, 20 mg/lesion): 80.4%; Lesion size ([5]; topical 15% EGCG): significant reduction of the lesion size; IC50 against intracellular amastigotes [6]: 0.74 µg/mL (≈ 1.61 µM); IC50 against intracellular amastigotes [7]: 1.57 µg/mL (≈ 3.43 µM); IC50 against L. (L.) donovani [8]: 19.1 µg/mL (≈ 41.7 µM); Parasite burden inhibition [9]: 92.1%
Oc1cc(O)c2c(c1)O[C@@H](c1cc(O)c(O)c(O)c1)[C@H](O)C2 [GC, (−)-gallocatechin] | 1.2 | 93.5 ± 5 (≈ 305 µM) | 115 ± 37.1 (≈ 376 µM) | leishmanicidal activity | leishmanicidal activity | –
O=C(O[C@@H]1Cc2c(O)cc(O)cc2O[C@H]1c1cc(O)c(O)c(O)c1)c1cc(O)c(O)c(O)c1 [GCG, (−)-gallocatechin gallate] | 1.4 | 67.5 ± 9.5 (≈ 147 µM) | 94.9 ± 11.8 (≈ 207 µM) | leishmanicidal activity | leishmanicidal activity | IC50 against L. (L.) donovani [8]: 8.9 µg/mL (≈ 19.4 µM)
Oc1cc(O)c2c(c1)O[C@H](c1ccc(O)c(O)c1)[C@@H](O)C2 [(+)-catechin] | – | – | – | did not inhibit the growth | did not inhibit the growth | –
